Data reported in US9956157B2, “Composition containing fucosterol for skin whitening or moisturizing” (INDUSTRY-ACADEMIC COOPERATION FOUNDATION, YONSEI UNIVERSITY, priority 2014, dated 2018).

How the values were obtained:
Type in all cases: cell-based
[1] = tested on: B16F10 melanoma cells; test: MTT cytotoxicity in B16F10 melanoma cells; details: concentration of 0 to 20 μM, 48 hrs, FIG. 1
Method: B16F10 melanoma cells were incubated a dulbecco's modified eagle's media (DMEM) medium including 10% fetal bovine serum and then added in a 24-well plate with 2.5×10^4 cell/mL (the final volume of 1 mL). Fucosterol of 0.1, 1, 5, 10, and 20 μM was treated in the B16F10 melanoma cells, respectively. After treatment of 48 hrs, the medium was removed and a 0.5 mg/mL MTT solution was put in each well by 0.3 mL and the B16F10 melanoma cells were incubated in an incubator for 4 hrs. After 4 hrs, the MTT solution was removed and generated formazan was dissolved by adding dimetyl sulfoxide (DMSO) and then absorbance was measured at 570 nm and the result was illustrated in FIG. 1.

[2] = biological target: T1, tyrosinase (Mus musculus, UniProt P11344); test: Tyrosinase activity (L-DOPA, dopachrome) in α-MSH-stimulated B16F10 melanoma cells; details: 200 nM α-MSH, fucosterol 5, 10, 20 μM, 48 hrs, P<0.01, FIG. 4
T1 construct: endogenous in cells; host or cells: B16F10 melanoma cells (α-MSH stimulated)
T1 sequence (P11344 19-533): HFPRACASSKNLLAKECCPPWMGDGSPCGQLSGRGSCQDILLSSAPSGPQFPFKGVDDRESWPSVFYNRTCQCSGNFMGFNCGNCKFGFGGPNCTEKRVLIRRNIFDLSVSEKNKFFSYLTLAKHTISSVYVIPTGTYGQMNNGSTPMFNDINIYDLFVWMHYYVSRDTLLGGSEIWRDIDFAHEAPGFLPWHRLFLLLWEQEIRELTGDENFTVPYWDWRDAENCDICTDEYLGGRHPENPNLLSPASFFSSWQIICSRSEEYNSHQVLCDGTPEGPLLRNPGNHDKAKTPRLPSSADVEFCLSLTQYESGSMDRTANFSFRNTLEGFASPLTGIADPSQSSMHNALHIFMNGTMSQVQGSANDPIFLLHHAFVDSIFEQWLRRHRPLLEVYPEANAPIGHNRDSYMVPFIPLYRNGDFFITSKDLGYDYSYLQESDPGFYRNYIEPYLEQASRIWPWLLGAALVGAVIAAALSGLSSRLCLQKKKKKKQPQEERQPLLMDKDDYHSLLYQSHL
Method: B16F10 melanoma cells were incubated in a DMEM medium including 10% fetal bovine serum and then added in a 6-well plate with 2.5×10^5 cell/mL (the final volume of 3 mL). After being incubated for 24 hrs, the medium was removed and fucosterol which was dissolved in the DMEM medium including 200 nM α-MSH was treated at 5, 10, and 20 μM concentrations, respectively. After 48 hrs, the incubated medium was removed from the 6-well plate and PBS including 1% Triton X-100 was added to collect the cells. The collected cells were centrifuged for 10 min and 150 μL of a supernatant was put in a 96-well plate and 50 μL of L-3,4-dihydroxyphenylalanine (L-DOPA) was added. With respect to an amount of dopachrome generated after incubated for 30 min at 37° C., absorbance was measured at 475 nm by using a microplate reader (Versa max, Sunnyvale, Calif., USA). In this case, cells without the fucosterol were set to a control group and the tyrosinase activity degree was measured in the control group and cells treated with the fucosterol. According to Equation 2 below, the tyrosinase activity compared with the control group was calculated and the result was illustrated in FIG. 4. Tyrosinase activity (%) compared with control group=Reaction absorbance of each test material/Reaction absorbance of control group×100 [Equation 2]

[3] = tested on: loricrin; test: Loricrin mRNA expression (RT-PCR) in HaCaT human keratinocytes; details: HaCaT cells, fucosterol 5, 10, 20 μM, 24 hrs, FIG. 9
Method: (§1) HaCaT human keratinocytes were incubated in a Dulbecco's Modified Eagle's Media (DMEM) medium including 10% fetal bovine serum and then put in a 6-well plate with 2×10^5 cell/ml (the final volume of 3 ml). After being incubated for 24 hrs, the medium was removed and fucosterol which was dissolved in the DMEM medium was treated at 5, 10, and 20 μM concentrations, respectively. After 24 hrs, the total RNA was collected by using a TRIzol reagent (Invitrogen, Carlsbad, Calif., USA) and reverse-transcribed and then a reverse transcription-polymerase chain reaction (RT-PCR) analysis was performed below. First, for cDNA synthesis, the RNA was reverse-transcribed by reverse transcriptase. The RT-PCR was performed by specific primers below and the result was illustrated in FIG. 9.

[4] = tested on: involucrin; test: Involucrin protein expression (western blot) in HaCaT human keratinocytes; details: HaCaT cells, fucosterol 5, 10, 20 μM, 24 hrs, FIG. 10
Method: (§2) HaCaT human keratinocytes were incubated in a Dulbecco's Modified Eagle's Media (DMEM) medium including 10% fetal bovine serum and then put in a 6-well plate with 2×10^5 cell/ml (the final volume of 3 ml). After being incubated for 24 hrs, the medium was removed and fucosterol which was dissolved in the DMEM medium was treated at 5, 10, and 20 μM concentrations, respectively. After 24 hrs, the HaCaT human keratinocytes were lysed with a NP40 buffer solution including proteinase inhibitor cocktail. The protein amount extracted from the HaCaT human keratinocytes was quantified by using a Bradford method. The sample was boiled for 5 min and then the same amount of protein ([…]) was isolated by electrophoresis with 10% SDS-PAGE. The isolated proteins after electrophoresis were transferred to a nitrocellular membrane and western blot was performed. A primary antibody was reacted and the nitrocellular membrane was washed three times by using Tris-buffer saline tween20 (TBST) for 10 min. In this case, the kind and the dilution of the primary antibody used in the present invention is 1:1000. In a secondary antibody reaction, a secondary antibody was put in the membrane performing the primary antibody reaction and reacted for 2 hrs at room temperature. In this case, a dilution of the secondary antibody was 1:5000. […]

[5] = tested on: transglutaminase; test: Transglutaminase protein expression (western blot) in HaCaT human keratinocytes; details: HaCaT cells, fucosterol 5, 10, 20 μM, 24 hrs, FIG. 10
Method: as §2

[6] = tested on: filaggrin; test: Filaggrin mRNA expression (RT-PCR) in HaCaT human keratinocytes; details: HaCaT cells, fucosterol 5, 10, 20 μM, 24 hrs, FIG. 11
Method: as §1, with “11.” for “9.”

[7] = tested on: caspase 14; test: Caspase 14 mRNA expression (RT-PCR) in HaCaT human keratinocytes; details: HaCaT cells, fucosterol 5, 10, 20 μM, 24 hrs, FIG. 11
Method: as §1, with “11.” for “9.”

C/C=C(\CC[C@@H](C)[C@H]1CC[C@H]2[C@@H]3CC=C4C[C@@H](O)CC[C@]4(C)[C@H]3CC[C@]12C)C(C)C [fucosterol]
cytotoxicity (MTT) [1]: the cytotoxicity was not shown
inhibitory effect on tyrosinase activity [2]: very excellent inhibitory effect
mRNA expression of loricrin [3]: increased
protein expression of involucrin [4]: increased
protein expression of transglutaminase [5]: increased
mRNA expression of filaggrin [6]: increased
mRNA expression of caspase 14 [7]: increased
